Measurements published in ChEMBL document CHEMBL2010789, “Identification of 3-acyl-2-phenylamino-1,4-dihydroquinolin-4-one derivatives as inhibitors of the phosphatase SerB653 in Porphyromonas gingivalis, implicated in periodontitis” (Bioorg Med Chem Lett, 2012).
Converted amounts (≈) assume the structure as drawn. The source made the active and inactive calls. The rule behind the calls is not given here.

What was measured:
[1] = test system: Porphyromonas gingivalis; experiment: Inhibition of Porphyromonas gingivalis recombinant SerB653 phosphatase expressed in Escherichia coli BL21 using phosphoserine as substrate at 50 uM after 1 hr by malachite green colorimetric assay
[2] = Inhibition of Porphyromonas gingivalis recombinant SerB653 phosphatase expressed in Escherichia coli BL21 using phosphoserine as substrate after 1 hr by malachite green colorimetric assay
[3] = Inhibition of Porphyromonas gingivalis recombinant SerB653 phosphatase expressed in Escherichia coli BL21 using phosphoserine as substrate measured every 10 secs by malachite green colorimetric assay
[4] = test system: Porphyromonas gingivalis; experiment: Competitive inhibition of Porphyromonas gingivalis recombinant SerB653 phosphatase expressed in Escherichia coli BL21 using phosphoserine as substrate by Lineweaver-Burk plot analysis
[5] = test system: Porphyromonas gingivalis; experiment: Antibacterial activity against Porphyromonas gingivalis ATCC 33277 after 2 hrs by broth microdilution method; type: functional; conditions: ATCC 33277, 2 h

SMILES	inhibition [1]	IC50 [2]	inhibition [4]	MIC [5]	Ki [3]
CC(=O)c1c(Nc2ccc(C(F)(F)F)cc2)[nH]c2c(C(F)(F)F)cc(Cl)cc2c1=O	97.7%	7 µM			2.5 µM
CCC(=O)c1c(Nc2ccc(Cl)cc2Cl)[nH]c2c(Cl)ccc([N+](=O)[O-])c2c1=O	97.4%	19.6 µM			
CC(=O)c1c(Nc2cc(F)cc(F)c2)[nH]c2c(F)ccc(F)c2c1=O	5.9%				
CC(C)CC(=O)c1c(Nc2ccc(Cl)cc2Cl)[nH]c2c(Cl)ccc([N+](=O)[O-])c2c1=O	97.8%	19.6 µM			
CC(=O)c1c(Nc2cc(Cl)cc(Cl)c2)[nH]c2c(Cl)ccc([N+](=O)[O-])c2c1=O	99.3%	18.8 µM			
CC(C)C(=O)c1c(Nc2cc(Cl)cc(Cl)c2)[nH]c2c(Cl)ccc([N+](=O)[O-])c2c1=O	99.1%	17.9 µM			
CC(=O)c1c(Nc2cccc(Cl)c2Cl)[nH]c2c(Cl)ccc([N+](=O)[O-])c2c1=O	96.7%	19.6 µM			
CC(=O)c1c(Nc2ccc(Cl)cc2Cl)[nH]c2c(C(F)(F)F)cccc2c1=O	96.3%	18.6 µM			
CCC(=O)c1c(Nc2ccc(Cl)c(Cl)c2)[nH]c2c(Cl)ccc([N+](=O)[O-])c2c1=O	98.5%	11.6 µM			4.1 µM
CC(=O)c1c(Nc2cccc(C)c2)[nH]c2c(Cl)c(Cl)ccc2c1=O	1.6%				
CC(=O)c1c(Nc2ccc(F)cc2F)[nH]c2c(C)ccc(Cl)c2c1=O	2.3%				
CCC(=O)c1c(Nc2cc(Cl)cc(Cl)c2)[nH]c2c(Cl)ccc([N+](=O)[O-])c2c1=O	97.4%	6.9 µM			2.5 µM
CC(=O)c1c(Nc2ccc(C(C)(C)C)cc2)[nH]c2c([N+](=O)[O-])cc(Cl)cc2c1=O	0%				
COc1cccc(Nc2[nH]c3c([N+](=O)[O-])cc(Cl)cc3c(=O)c2C(C)=O)c1	0%				
CC(C)C(=O)c1c(Nc2cccc(Cl)c2Cl)[nH]c2c(Cl)ccc([N+](=O)[O-])c2c1=O	96.3%	19.1 µM			
CC(=O)c1c(Nc2cc(C(F)(F)F)cc(C(F)(F)F)c2)[nH]c2c(Cl)ccc(F)c2c1=O	98.5%	19.3 µM			
O=C(c1c(Nc2cc(Cl)ccc2Cl)[nH]c2c(Cl)ccc([N+](=O)[O-])c2c1=O)C1CC1	98.2%	18.7 µM			
COc1ccc(Nc2[nH]c3c([N+](=O)[O-])cc(Cl)cc3c(=O)c2C(C)=O)cc1	6.2%				
CC(C)CC(=O)c1c(Nc2cc(F)cc(F)c2)[nH]c2c(Cl)ccc([N+](=O)[O-])c2c1=O	97.5%	16.3 µM			

SMILES	inhibition [1]	IC50 [2]	inhibition [4]	MIC [5]	Ki [3]
O=C(c1c(Nc2ccc(Cl)cc2Cl)[nH]c2c(Cl)ccc([N+](=O)[O-])c2c1=O)C1CC1	98.1%	17.6 µM			
CC(=O)c1c(Nc2cc(Cl)cc(Cl)c2)[nH]c2c(C)ccc(Cl)c2c1=O	8.6%				
COc1cccc(Nc2[nH]c3c(Cl)c(Cl)ccc3c(=O)c2C(C)=O)c1	3.6%				
CCC(=O)c1c(Nc2ccc(Cl)cc2F)[nH]c2c(Cl)ccc([N+](=O)[O-])c2c1=O	94.9%	19.8 µM			
CC(=O)c1c(Nc2ccc(C)cc2)[nH]c2c([N+](=O)[O-])cc(Cl)cc2c1=O	2.2%				
CCC(=O)c1c(Nc2cc(F)cc(F)c2)[nH]c2c(Cl)ccc([N+](=O)[O-])c2c1=O	92.7%	19.4 µM			
CC(=O)c1c(Nc2cccc(F)c2C)[nH]c2c(F)ccc(F)c2c1=O	0%				
CC(C)CC(=O)c1c(Nc2cc(Cl)cc(Cl)c2)[nH]c2c(Cl)ccc([N+](=O)[O-])c2c1=O	99.1%	18.7 µM			
CC(C)C(=O)c1c(Nc2cc(Cl)cc(Cl)c2)[nH]c2c(Cl)ccc(Cl)c2c1=O	94.9%	9.2 µM			3.3 µM
CC(=O)c1c(Nc2ccc(F)cc2F)[nH]c2c(Cl)ccc(F)c2c1=O	9.1%				
CC(=O)c1c(Nc2ccc(F)cc2F)[nH]c2c(F)ccc(F)c2c1=O	0%				
CC(=O)c1c(Nc2ccccc2Cl)[nH]c2c(C(F)(F)F)cc(Cl)cc2c1=O	89.1%	16.8 µM			
CC(=O)c1c(Nc2ccc(Cl)cc2Cl)[nH]c2c(C(F)(F)F)cc(Cl)cc2c1=O	99%	7 µM			2.5 µM
CC(=O)c1c(Nc2ccc(F)cc2)[nH]c2c([N+](=O)[O-])cc(Cl)cc2c1=O	9.3%				
CC(C)C(=O)c1c(Nc2ccc(Cl)cc2F)[nH]c2c(Cl)ccc([N+](=O)[O-])c2c1=O	94.3%	16.5 µM			
CC(C)C(=O)c1c(Nc2ccc(F)cc2F)[nH]c2c(Cl)ccc([N+](=O)[O-])c2c1=O	80.1%	12.3 µM			
O=C(c1c(Nc2ccc(F)cc2F)[nH]c2c(Cl)ccc([N+](=O)[O-])c2c1=O)C1CC1	85.6%	11.3 µM			4 µM
O=C(c1c(Nc2cc(Cl)cc(Cl)c2)[nH]c2c(Cl)ccc([N+](=O)[O-])c2c1=O)C1CC1	99.4%	17 µM			
CC(C)C(=O)c1c(Nc2cc(F)cc(F)c2)[nH]c2c(Cl)ccc([N+](=O)[O-])c2c1=O	94.7%	19.1 µM			

Continued, in another order:

inhibition [1]	IC50 [2]	inhibition [4]	MIC [5]	SMILES	Ki [3]
97.3%	19 µM			CC(C)C(=O)c1c(Nc2cc(Cl)ccc2Cl)[nH]c2c(Cl)ccc([N+](=O)[O-])c2c1=O	
96.2%	2.8 µM	Active	0.006 µg/mL (≈ 0.0143 µM)	O=C(c1c(Nc2cc(F)cc(F)c2)[nH]c2c(Cl)ccc([N+](=O)[O-])c2c1=O)C1CC1	1 µM
98.6%	18.9 µM			CC(C)CC(=O)c1c(Nc2cccc(Cl)c2Cl)[nH]c2c(Cl)ccc([N+](=O)[O-])c2c1=O	
86.6%	16.7 µM			CC(=O)c1c(Nc2cc(Cl)ccc2Cl)[nH]c2c(Cl)ccc(Cl)c2c1=O	
97.1%	5.5 µM		0.05 µg/mL (≈ 0.113 µM)	CCC(=O)c1c(Nc2cccc(Cl)c2Cl)[nH]c2c(Cl)ccc([N+](=O)[O-])c2c1=O	2 µM
4.8%				CC(=O)c1c(Nc2ccccc2)[nH]c2c(Cl)c(Cl)ccc2c1=O	
97.7%	8 µM			CC(C)C(=O)c1c(Nc2ccc(Cl)cc2Cl)[nH]c2c(Cl)ccc(Cl)c2c1=O	2.9 µM
98.3%	19 µM			CC(=O)c1c(Nc2cc(Cl)ccc2Cl)[nH]c2c(Cl)ccc([N+](=O)[O-])c2c1=O	
95.5%	18.7 µM			O=C(c1c(Nc2ccc(Cl)cc2F)[nH]c2c(Cl)ccc([N+](=O)[O-])c2c1=O)C1CC1	
98.5%	12.6 µM			O=C(c1c(Nc2cccc(Cl)c2Cl)[nH]c2c(Cl)ccc([N+](=O)[O-])c2c1=O)C1CC1	4.5 µM
92.2%	17.6 µM			CC(=O)c1c(Nc2cc(F)cc(F)c2)[nH]c2c([N+](=O)[O-])cc(Cl)cc2c1=O	
93.5%	18.6 µM			CC(=O)c1c(Nc2cc(F)cc(F)c2)[nH]c2c(Cl)c(Cl)ccc2c1=O	
97.3%	19.3 µM			CC(C)CC(=O)c1c(Nc2ccc(Cl)cc2F)[nH]c2c(Cl)ccc([N+](=O)[O-])c2c1=O	
95.7%	7.5 µM			CC(=O)c1c(Nc2ccc(Cl)cc2)[nH]c2c(C(F)(F)F)cc(Cl)cc2c1=O	2.7 µM
95%	19.4 µM			CC(=O)c1c(Nc2cc(C(F)(F)F)cc(C(F)(F)F)c2)[nH]c2c(F)ccc(F)c2c1=O	
32.4%				CC(=O)c1c(Nc2ccc(F)c(F)c2F)[nH]c2c(Cl)ccc(C)c2c1=O	
1.4%				CC(=O)c1c(Nc2ccc(Br)cc2)[nH]c2c(F)ccc(F)c2c1=O	
3.1%				CC(=O)c1c(Nc2ccccc2)[nH]c2c([N+](=O)[O-])cc(Cl)cc2c1=O	
98.8%	18.8 µM			CC(C)CC(=O)c1c(Nc2cc(Cl)ccc2Cl)[nH]c2c(Cl)ccc([N+](=O)[O-])c2c1=O	
87%	14.5 µM			CC(=O)c1c(Nc2ccc([N+](=O)[O-])cc2)[nH]c2c([N+](=O)[O-])cc(Cl)cc2c1=O	
89.7%	11.5 µM			O=C(c1c(Nc2ccc(Cl)c(Cl)c2)[nH]c2c(Cl)ccc(Cl)c2c1=O)C1CC1	4.1 µM
91%	19.3 µM			CC(C)CC(=O)c1c(Nc2cc(F)ccc2F)[nH]c2c(Cl)ccc(Cl)c2c1=O	
7.9%				CC(=O)c1c(Nc2cc(F)ccc2F)[nH]c2c(F)ccc(F)c2c1=O	
24.5%				CC(=O)c1c(Nc2ccc(Cl)cc2F)[nH]c2c(Cl)ccc(C)c2c1=O	
97.8%	4 µM		0.05 µg/mL (≈ 0.113 µM)	CCC(=O)c1c(Nc2cc(Cl)ccc2Cl)[nH]c2c(Cl)ccc([N+](=O)[O-])c2c1=O	1.4 µM
